Measurements: patent US12595262B2, “PRMT5 inhibitors” (MERCK SHARP & DOHME LLC, priority 2019, dated 2026)

Experiments:
[1] = biological target: T1, PRMT5-MEP50 enzyme complex (Homo sapiens, UniProt O14744); test: PRMT5-MEP50 Enzyme Methylation Assay; assay type: biochemical; conditions: recombinant full-length PRMT5-MEP50 1.0 nM, 75 nM biotinylated H4R3(Me1) peptide, 15 μM SAM; 60 minutes pre-incubation, 150 minutes at 37° C.
T1 construct: 1.25 nM of Full-length (FL)-PRMT5-MEP50 enzyme complex; made in house; host or cells: baculovirus-transfected Sf21 cells
Experimental: PRMT5-MEP50 Enzyme Methylation Assay
PRMT5-MEP50 biochemical assay is a direct measurement of the methylation activity of the enzyme complex on a short peptide substrate derived from the N-terminus of H4 histone. Methylation experiment was performed with recombinant PRMT5-MEP50 protein complex. The assessment of inhibitory effect of small molecules was measured by the effectiveness of the compounds to inhibit this reaction (EC50).
In this assay, the potency (EC50) of each compound was determined from a twenty-point (1:2 serial dilution; top compound concentration of 100000 nM) titration curve using the following outlined procedure. To each well of a white ProxiPlus 384 well-plate, 100 nL of compound (1% DMSO in final assay volume of 10 μL) was dispensed, followed by the addition of 8 μL of 1× assay buffer (50 mM Bicine pH 8.0, 1 mM DTT, 0.004% Tween20, 0.01% BSA) containing 1.25 nM of Full-length (FL)-PRMT5-MEP50 enzyme complex (recombinant proteins from baculovirus-transfected Sf21 cells: FL-PRMT5; MW=[…] and FL-MEP50; MW=38614) and 1 μL of 150 μM S-(5′-Adenosyl)-L-Methionine Chloride (SAM). Plates were sealed and placed in a 37° C. humidified chamber for a 60 minutes pre-incubation with compound. Subsequently, each reaction was initiated by the addition of 1 μL 1× assay buffer containing 750 nM biotinylated H4R3(Me1) peptide. The final reaction in each well of 10 μL consists of 1.0 nM PRMT5-MEP50, 75 nM biotinylated-peptide, and 15 μM SAM. Methylation reactions were allowed to proceed for 150 minutes in a sealed plate at 37° C. Reactions were immediately quenched by the addition of 1 μL of 5% formic acid. Plates were then frozen and shipped to SAMDITM Tech Inc. to determine the percent conversion from H4R3(Me1) to H4R3(Me2). Dose-response curves were generated by plotting percent effect (% product conversion; Y-axis) vs. Log10 compound concentrations (X-axis). EC50 values were determined by non-linear regression according to models for sigmoidal (4 parameters) dose-response curves.

PRMT5 = biological target: T2, PRMT5 (Homo sapiens, UniProt O14744); test: PRMT5 Cell Target Engagement (TE) Assay; assay type: cell-based; conditions: MCF-7 cells, treated for 3 days; symmetrically dimethylated (SDMA) nuclear proteins by high content imaging
T2 construct: endogenous in cells; host or cells: MCF-7
Source text: PRMT5 Cell Target Engagement (TE) Assay
The PRMT5 TE assay is a biomarker assay for identifying compounds that inhibit symmetric dimethylation of arginine (SDMA) of PRMT5 substrates. The following substrates have been reported for PRMT5: histone H2A and H4 R3, Histone H3 R2, Histone H3 R8, spliceosome Sm proteins, ribosomal protein RPS10, p53, FEN1, nucleoplasmin, nucleolin, EGFR and EBNA. The assay focuses on detecting symmetrically dimethylated nuclear proteins using high content imaging technology. Detection of the expression of symmetrically dimethylated nuclear proteins is through a mixture of primary rabbit monoclonal antibodies to SDMA (CST 13222), which in turn recognized by an Alexafluor 488 dye-conjugated anti-rabbit IgG secondary antibody. The IN Cell Analyzer 2200 or Opera-Phenix measures nuclear Alexafluor 488 fluorescent dye intensity that is directly related to the level of expression of symmetrically dimethylated nuclear proteins at the single cell level. Nuclear AF488 dye intensities are compared to the mean value for DMSO treated cells (MIN) to report percent of inhibition for each compound-treated well.
In this assay, the cell potency (EC50) of each compound was determined from a ten point (1:3 serial dilution; top compound concentration of 10000 nM) titration curve using the following outlined procedure. Each well of a BD falcon collagen coated black/clear bottom 384-well plate was seeded with 4000 MCF-7 cells in 30 μl media and allowed to attach for 5 h. Media is ATCC-formulated Eagle's Minimum Essential Medium, Catalog No. 30-2003. To make the complete growth medium, the following components were added to the base medium: 0.01 mg/mL human recombinant insulin; fetal bovine serum to a final concentration of 10%. Additional 30 µl of media containing 2× compounds were added to each well. Cells were treated for 3 days in 37° C. CO2 incubator. On day 3, cells were fixed with Cytofix, permeabilized with 0.4% Triton-X-100/Cytofix, and washed with D-PBS without Ca/Mg. Cells were blocked with Licor Odessey blocking reagent for 1 h at room temperature, followed by incubation with anti-SDMA (1:1000) antibody at 4° C. overnight. 1° antibody was removed, followed by three washings with DPBS without Ca/Mg and 0.05% Tween20. Hoechst (5 μg/mL), Cell Mask deep stain (1:2000) and Alexa488-conjugated goat anti-rabbit IgG (2 μg/mL) was added for 1 h at room temperature. A final washing step (three washes) was performed before sealing plate for imaging on In Cell Analyzer 2200 or Opera-Phenix. Images from analyzer were uploaded to Columbus (at WP or BOS) for image analysis. IC50 values were determined by 4 parameters robust fit of percent fluorescence units vs. (Log10) compound concentrations.

T1 sequence (O14744 whole entry): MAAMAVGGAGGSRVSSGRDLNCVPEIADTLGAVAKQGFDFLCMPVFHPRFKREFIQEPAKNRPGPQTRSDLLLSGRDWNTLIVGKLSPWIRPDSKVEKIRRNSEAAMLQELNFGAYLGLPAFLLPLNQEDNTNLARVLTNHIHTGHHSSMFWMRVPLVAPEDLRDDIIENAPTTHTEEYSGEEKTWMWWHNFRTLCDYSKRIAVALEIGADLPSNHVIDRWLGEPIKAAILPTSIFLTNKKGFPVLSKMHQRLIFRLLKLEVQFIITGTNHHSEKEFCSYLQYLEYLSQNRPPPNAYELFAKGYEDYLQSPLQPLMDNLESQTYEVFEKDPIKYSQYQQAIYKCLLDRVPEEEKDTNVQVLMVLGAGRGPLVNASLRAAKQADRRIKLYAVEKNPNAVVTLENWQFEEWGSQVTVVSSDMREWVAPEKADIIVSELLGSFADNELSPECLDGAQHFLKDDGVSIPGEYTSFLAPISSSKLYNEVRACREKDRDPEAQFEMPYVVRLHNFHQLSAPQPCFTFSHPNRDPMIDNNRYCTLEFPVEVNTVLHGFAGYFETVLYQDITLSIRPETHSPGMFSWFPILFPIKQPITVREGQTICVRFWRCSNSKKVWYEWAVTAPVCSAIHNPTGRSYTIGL
T1 sequence (Q9BQA1 whole entry partner): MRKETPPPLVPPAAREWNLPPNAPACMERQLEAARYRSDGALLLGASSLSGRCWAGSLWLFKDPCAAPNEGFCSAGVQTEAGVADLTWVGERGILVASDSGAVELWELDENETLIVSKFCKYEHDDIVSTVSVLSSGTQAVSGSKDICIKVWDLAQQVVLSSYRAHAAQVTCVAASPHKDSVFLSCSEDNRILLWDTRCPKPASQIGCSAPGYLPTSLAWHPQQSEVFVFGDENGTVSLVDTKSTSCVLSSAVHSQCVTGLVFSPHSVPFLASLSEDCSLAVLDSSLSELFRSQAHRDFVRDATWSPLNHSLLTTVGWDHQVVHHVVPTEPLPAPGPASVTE
T2 sequence (O14744 whole entry): as the sequence (O14744 whole entry) above
T2 sequence (Q9BQA1 whole entry partner): as the sequence (Q9BQA1 whole entry partner) above

| Structure (SMILES) | EC50 [1] | EC50 (PRMT5) |
| --- | --- | --- |
| CC(=O)N1CCC(Nc2cc(C(=O)N3CC[C@H](N4CCc5ccccc5C4)[C@@H](O)C3)c(F)cn2)CC1 [Example 1, 1-{4-[(4-{[(3S,4S)-4-(3,4-dihydroisoquinolin-2(1H)-yl)-3-hydroxypiperidin-1-yl]carbonyl}-5-fluoropyridin-2-yl)amino]piperidin-1-yl}ethanone] | 0.9 nM | 6.9 nM |
| [2H]C1([2H])c2ccccc2CCN1[C@H]1CCN(C(=O)c2cc(NC3CCN(C(C)=O)CC3)ncc2F)C[C@@H]1O [Example 1b, 1-(4-((4-((3S,4S)-4-(3,4-dihydroisoquinolin-2(1H)-yl-1,1-d2)-3-hydroxypiperidine-1-carbonyl)-5-fluoropyridin-2-yl)amino)piperidin-1-yl)ethan-1-one] | 0.9 nM | 2 nM |
| [2H]C1([2H])c2ccccc2CCN1[C@@H]1CCN(C(=O)c2cc(NC3CCN(C(C)=O)CC3)ncc2F)C[C@H]1O [Example 1c, 1-(4-((4-((3R,4R)-4-(3,4-dihydroisoquinolin-2(1H)-yl-1,1-d2)-3-hydroxypiperidine-1-carbonyl)-5-fluoropyridin-2-yl)amino)piperidin-1-yl)ethan-1-one] | – | 165 nM |
| O=C(c1cn2cc(C3CC3(F)F)cnc2n1)N1CC[C@H](N2CCc3ccccc3C2)[C@@H](O)C1 (stereo partly drawn) [Example 2, (6-(2,2-difluorocyclopropyl)imidazo[1,2-a]pyrimidin-2-yl)((3S,4S)-4-(3,4-dihydroisoquinolin-2(1H)-yl)-3-hydroxypiperidin-1-yl)methanone] | 1.6 nM | 4.7 nM |
| O=C(c1cn2cc(C3CC3)cnc2n1)N1CC[C@H](N2CCc3ccccc3C2)[C@@H](O)C1 [Example 3, (6-cyclopropylimidazo[1,2-a]pyrimidin-2-yl)((3S,4S)-4-(3,4-dihydroisoquinolin-2(1H)-yl)-3-hydroxypiperidin-1-yl)methanone] | 1.3 nM | 6.8 nM |
| CCc1nc2nc(C(=O)N3CC[C@H](N4CCc5ccccc5C4)[C@@H](O)C3)cn2cc1Br [Example 4, (6-bromo-7-ethylimidazo[1,2-a]pyrimidin-2-yl)((3S,4S)-4-(3,4-dihydroisoquinolin-2(1H)-yl)-3-hydroxypiperidin-1-yl)methanone] | 1.5 nM | 15 nM |
